# Source: patent US10272036B2, “Composition for oral delivery of bioactive agents” (priority 2013, dated 2019)
# B1: ovalbumin (protein, UniProt P01012 2-386, looked up)
# Ovalbumin: GSIGAASMEFCFDVFKELKVHHANENIFYCPIAIMSALAMVYLGAKDSTRTQINKVVRFDKLPGFGDSIEAQCGTSVNVHSSLRDILNQITKPNDVYSFSLASRLYAEERYPILPEYLQCVKELYRGGLEPINFQTAADQARELINSWVESQTNGIIRNVLQPSSVDSQTAMVLVNAIVFKGLWEKAFKDEDTQAMPFRVTEQESKPVQMMYQIGLFRVASMASEKMKILELPFASGTMSMLVLLPDEVSGLEQLESIINFEKLTEWTSSNVMEERKIKVYLPRMKMEEKYNLTSVLMAMGITDVFSSSANLSGISSAESLKISQAVHAAHAEINEAGREVVGSAEAGVDAASVSEEFRADHPFLFCIKHIATNAVLFFGRCVSP
# notes: Ovalbumin, model vaccine / protein antigen, unprotected or as solution
# Key:
# BALB/C mice [1] = tested on: BALB/C mice
# Text: Experimental Methods: Ten-twelve week old female BALB/C mice are used. Mice are fed ad libitum. Each experimental group is housed in a separate cage.
# Three groups of 4 mice are each fed ad libitum as follows: 1) Inventive Warfarin composition, mixed in baits at 4% Warfarin activity, 2) Unencapsulated Warfarin, mixed in baits feed at 4% activity, 3) Bait containing a composition as in Example 3, containing no Warfarin or other bioactive. The feed intake and kill effect on the mice are monitored.
# Rodents = conditions: cited from earlier work
# [2] = Degradation of unprotected protein antigen (OVA) activity in simulated gastric juice; format: physicochemical; conditions: simulated gastric fluid, 0.08% pepsin, pH-2, 37° C.
# Procedure: Western Blot: the compositions were lysed with RIPA buffer as described above, and a calculated amount equivalent to 12 μg of protein per sample was loaded on a 10% SDS-polyacrylamide gradient gel (SDS-PAGE, Bio-Rad, Hercules, Calif.). Proteins were transferred onto a PVDF membrane (Bio-Rad) and blocked for 1 h with 5% non-fat milk in PBS containing 0.5% Tween-20 (PBS-T). Blots were incubated with an appropriate primary antibody at 1:5000 dilutions for 1 h at room temperature. After washing with PBS-T (3×10 mL, 5 min. each), the membranes were incubated with an appropriate HRP-conjugated secondary antibody (EMD Millipore Corporation, Billerica, Mass., USA) at 1:5000 dilution for 1 h. After washing with PBS-T (3×10 mL, 5 min. each), chemiluminescent films were developed with an ECL substrate (Amsheram Biosciences).
# To evaluate the loss of activity of a protein antigen following a typical gastric exposure, non-encapsulated OVA (10 mg) was incubated in 10 ml simulated gastric fluid containing 0.08% pepsin at pH-2 for 2 h at 37° C. on a shaker. Medium was withdrawn at 15 min, 30 min, 60 min and 120 min incubation times, and the amount of residual OVA was analyzed using Western Blot analysis as described above.
# BALB/C mice [3] = assay: Oral administration of OVA composition to mice, immune response (ELISA IgG/IgA, ASC); format: in vivo; conditions: OVA solution subcutaneously (SC), 0 and 3 weeks, read at week 4, expected
# Procedure: Ovalbumin is orally administered to mice to test the efficacy of the inventive compositions in inducing an immune response.
# Ovalbumin composition: Ovalbumin (1 mg/g of ovalbumin, Sigma, St. Louis, Mo.,) is incorporated into the inventive composition as described in Example 5. Three groups of 4 mice each are inoculated as follows: 1) ovalbumin (OVA) in the composition, administered orally, 2) OVA solution, administered subcutaneously (SC), 3) antigen free composition administered orally. Mice are inoculated at 0 and 3 weeks. Each dose administers a total 100 mg of dry composition mixed with corn oil at a ratio of 1:2 w/w of dry composition/oil, coated onto feed pellets. At week 4 each mouse is euthanized and serum and spleen cells are harvested.
# Immunological assays: Serum is assayed for IgG and IgA by ELISA. ELISA is performed using OVA absorbed to polystyrene plates. Samples are placed in wells in triplicate at a 1:25 dilution for serum. […] Optical density of each well is determined by placing the plate in a microtiter plate spectrophotometer and reading the plate at 490 nm. […]
# The OVA specific IgG and IgA antibodies are quantified by determining the increase in optical density over time. […] No OVA specific IgG or IgA antibodies are expected to be detected in mice fed antigen free composition.
# [4] = rodents ingesting baits containing Warfarin
Molecule,"kill effect on the mice (BALB/C mice [1]; after 8 h from feeding, expected)","feed intake, less than groups 1 and 3 (BALB/C mice [1]; baits at 4% Warfarin activity, ad libitum)",time to recovery (Rodents; rodents after a sublethal amount of Warfarin),time to become unconscious (Rodents; [4]),time to obvious symptoms of poisoning (Rodents; [4]),"Remaining activity (%) ([2]; 15 min, relative to pre-exposure activity)",Remaining activity (%) ([2]; 30 min),Remaining activity (%) ([2]; 60 min),Remaining activity (%) ([2]; 120 min),"OVA specific serum IgA, IgG and ASC secreting cells (BALB/C mice [3])"
CC(=O)CC(c1ccccc1)c1c(O)c2ccccc2oc1=O (stereo not shown) [Warfarin],all group 2 mice remain alive,over 25%,≤ 8 h,1 to 2 h,15 to 30 min,–,–,–,–,–
B1,–,–,–,–,–,61%,55%,38%,2%,equally increased
